Data: patent US20260092061A1, “COMPOUNDS FOR TARGETED PROTEIN DEGRADATION” (Amphista Therapeutics Limited, priority 2022, published 2026)

How the values were obtained:
[1] = target: T1, BRD9 (Homo sapiens, UniProt Q9H8M2); assay: BRD9 degradation, HiBiT-BRD9 KI HEK293 (LgBiT) cells, NanoGlo Lytic Endpoint assay (Assay Protocol 1); type: cell-based; conditions: BRD9 degradation; for Dmax / Dmax at 1 µM: HEK293; for Dmax at 1 µM: 1 μM compound at 6 h of treatment, read-out: Assay 1 Dmax
T1 sequence (Q9H8M2 1-597): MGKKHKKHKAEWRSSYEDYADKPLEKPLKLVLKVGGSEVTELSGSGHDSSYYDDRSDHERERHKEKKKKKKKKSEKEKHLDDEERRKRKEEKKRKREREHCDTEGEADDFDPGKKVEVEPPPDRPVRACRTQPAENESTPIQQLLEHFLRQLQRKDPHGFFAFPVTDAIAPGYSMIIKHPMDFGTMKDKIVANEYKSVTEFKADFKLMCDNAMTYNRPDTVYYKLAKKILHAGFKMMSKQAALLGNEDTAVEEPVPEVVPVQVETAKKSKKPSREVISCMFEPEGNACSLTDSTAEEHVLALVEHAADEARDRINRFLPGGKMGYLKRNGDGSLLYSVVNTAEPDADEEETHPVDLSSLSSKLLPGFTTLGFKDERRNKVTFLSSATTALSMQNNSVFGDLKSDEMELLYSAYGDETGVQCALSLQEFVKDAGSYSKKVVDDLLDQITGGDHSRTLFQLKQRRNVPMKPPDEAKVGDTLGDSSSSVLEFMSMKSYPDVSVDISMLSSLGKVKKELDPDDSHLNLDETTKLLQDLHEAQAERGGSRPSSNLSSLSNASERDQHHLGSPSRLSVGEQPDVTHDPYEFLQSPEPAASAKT
Outline: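 HiBiT-tagged BRD9 knock-in HEK293 (LgBiT) cells exposed to compounds for 6 h at 37 °C, 5% CO2. Residual BRD9 measured by HiBiT lytic luminescence. % BRD9 remaining normalised to DMSO-treated cells (high) and no-cell wells (low).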

[2] = target: T1, BRD9; assay: Degradation of BRD9 (IF), immunofluorescence in MV4-11 cells, 24 hours (Assay Protocol 2); type: cell-based; parameters: A suspension of MV4-11 cells (ATCC CRL-9591) was prepared; host or cells: MV4-11
Outline: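 MV4-11 cells treated with compound 24 h at 37° C., then fixed, permeabilised and immunostained for BRD9 (anti-BRD9 E4Q3F, Alexa 647 secondary, Hoechst counterstain). High-content imaging quantified nuclear BRD9 signal; % BRD9 remaining normalised to DMSO and 100 nM CFT-8634 controls.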

[3] = Assay protocol 1, read-out: DC50
[4] = Assay protocol 1, read-out: Dmax
[5] = Assay protocol 2, BRD9 degradation, read-out: DC50
[6] = MV4-11, Assay protocol 2, BRD9 degradation, read-out: Dmax
[7] = Table 4, determined according to Assay Protocol 1, read-out: Dmax^1
[8] = Table 4, BRD9 degradation, determined according to Assay Protocol 2, read-out: DC50^2
[9] = Table 2, Assay Protocol 1, 6 h of treatment, read-out: Assay 1 DC50
[10] = MV4-11, 24 h, Table 2, BRD9 degradation (IF), Assay Protocol 2, MV4-11 cells, read-out: Assay 2 DCmax
[11] = Table 2, BRD9 degradation (IF), Assay Protocol 2, MV4-11 cells, read-out: Assay 2 DC50

Row | SMILES | DC50 [1, 3] | Dmax [1, 4] | DC50 [2, 5] | Dmax [2, 6] | also measured
1 | COc1cc(-c2cn(C)c(=O)c(C)c2C)cc(OC)c1CN1CCN(Cc2cccc3c2CCN(C(=O)/C(C#N)=C/C2CCOC2)C3C)CC1 (mixture of isomers) [Compound B94, (E/Z)-2-(5-((4-(2,6-dimethoxy-4-(1,4,5-trimethyl-6-oxo-1,6-dihydropyridin-3-yl)benzyl)piperazin-1-yl)methyl)-1-methyl-1,2,3,4-tetrahydroisoquinoline-2-carbonyl)-3-(tetrahydrofuran-3-yl)acrylonitrile] | 1.25 to 10 nM | > 75% | 1.25 to 10 nM | 40 to 70% | –
2 | COc1cc(-c2cn(C)c(=O)c(C)c2C)cc(OC)c1CN1CC2CCC(C1)N2C(=O)/C(C#N)=C/c1nccs1 (mixture of isomers) [BRD9q, (E/Z)-2-(3-(2,6-dimethoxy-4-(1,4,5-trimethyl-6-oxo-1,6-dihydropyridin-3-yl)benzyl)-3,8-diazabicyclo[3.2.1]octane-8-carbonyl)-3-(thiazol-2-yl)acrylonitrile] | – | – | – | – | Dmax [1, 7]: 50 to 70%; DC50 [2, 8]: < 25 nM
3 | COc1cc(-c2cn(C)c(=O)c(C)c2C)cc(OC)c1CN1CCN(Cc2cccc3c2CCN(C(=O)/C(C#N)=C/C2CC(F)(F)C2)C3C)CC1 (mixture of isomers) [Compound B1, (E/Z)-3-(3,3-difluorocyclobutyl)-2-(5-((4-(2,6-dimethoxy-4-(1,4,5-trimethyl-6-oxo-1,6-dihydropyridin-3-yl)benzyl)piperazin-1-yl)methyl)-1-methyl-1,2,3,4-tetrahydroisoquinoline-2-carbonyl)acrylonitrile] | – | 40 to 70% | < 1.25 nM | 40 to 70% | –
4 | COc1cc(-c2cn(C)c(=O)c3cnccc23)cc(OC)c1CN(C)CCN(C)Cc1cccc2c1CCN(C(=O)/C(C#N)=C/C(C)(C)C)C2C (mixture of isomers) [Compound A32, (E/Z)-2-(5-(((2-((2,6-dimethoxy-4-(2-methyl-1-oxo-1,2-dihydro-2,7-naphthyridin-4-yl)benzyl)(methyl)amino)ethyl)(methyl)amino)methyl)-1-methyl-1,2,3,4-tetrahydroisoquinoline-2-carbonyl)-4,4-dimethylpent-2-enenitrile] | – | – | – | – | Dmax at 1 µM ([1]; Table 2, Assay Protocol 1): 40 to 70%; DC50 [1, 9]: 10 to 25 nM; Dmax [2, 10]: 40 to 70%; DC50 [2, 11]: < 1.25 nM
5 | COc1cc(-c2cn(C)c(=O)c(C)c2C)cc(OC)c1CN1CCN(Cc2cccc3c2CCN(C(=O)/C(C#N)=C/C2(C(F)(F)F)CCC2)C3C)CC1 (mixture of isomers) [Compound B36, (E/Z)-2-(5-((4-(2,6-dimethoxy-4-(1,4,5-trimethyl-6-oxo-1,6-dihydropyridin-3-yl)benzyl)piperazin-1-yl)methyl)-1-methyl-1,2,3,4-tetrahydroisoquinoline-2-carbonyl)-3-(1-(trifluoromethyl)cyclobutyl)acrylonitrile] | 1.25 to 10 nM | 40 to 70% | 25 to 1000 nM | 40 to 70% | –
6 | COCC1(/C=C(\C#N)C(=O)N2CCc3c(CN4CCN(Cc5c(OC)cc(-c6cn(C)c(=O)c(C)c6C)cc5OC)CC45CC5)cccc3C2C)CC1 (mixture of isomers) [Compound B124, (E/Z)-2-(5-((7-(2,6-dimethoxy-4-(1,4,5-trimethyl-6-oxo-1,6-dihydropyridin-3-yl)benzyl)-4,7-diazaspiro[2.5]octan-4-yl)methyl)-1-methyl-1,2,3,4-tetrahydroisoquinoline-2-carbonyl)-3-(1-(methoxymethyl)cyclopropyl)acrylonitrile] | < 1.25 nM | > 75% | < 1.25 nM | > 75% | –
7 | COc1cc(-c2cn(C)c(=O)c(C)c2C)cc(OC)c1CN1CCN(C(=O)c2ccc(C3CCCN3C(=O)/C(C#N)=C/C(C)(C)C)cc2)CC1 (mixture of isomers) [Compound B55, (E/Z)-2-(2-(4-(4-(2,6-dimethoxy-4-(1,4,5-trimethyl-6-oxo-1,6-dihydropyridin-3-yl)benzyl)piperazine-1-carbonyl)phenyl)pyrrolidine-1-carbonyl)-4,4-dimethylpent-2-enenitrile] | 10 to 25 nM | > 75% | 25 to 1000 nM | > 75% | –
8 | COc1cc(-c2cn(C)c(=O)c(C)c2C)cc(OC)c1CN1CCN(Cc2cccc3c2CCN(C(=O)/C(C#N)=C/C(C)(C)C)C3(C)C)C2(CC2)C1 [Compound C9, (E/Z)-2-(5-((7-(2,6-dimethoxy-4-(1,4,5-trimethyl-6-oxo-1,6-dihydropyridin-3-yl)benzyl)-4,7-diazaspiro[2.5]octan-4-yl)methyl)-1,1-dimethyl-1,2,3,4-tetrahydroisoquinoline-2-carbonyl)-4,4-dimethylpent-2-enenitrile] | 25 to 1000 nM | 70 to 75% | 25 to 1000 nM | 40 to 70% | –
9 | COc1cc(-c2cn(C)c(=O)c(C)c2C)cc(OC)c1CN1CCN(C(=O)C2CCCN(C(=O)/C(C#N)=C/c3nccs3)C2)CC1 (stereo not drawn) [Compound B205] | – | – | – | – | Dmax [1, 7]: 30 to 50%; Dmax ([2]; MV4-11, Table 4, BRD9 degradation, determined according to Assay Protocol 2, read-out: Dmax^2): 50 to 70%; DC50 [2, 8]: 25 to 200 nM
10 | COc1cc(-c2cn(C)c(=O)c3cnccc23)cc(OC)c1CN1CCN(Cc2cccc3c2CCN(C(=O)/C(C#N)=C/c2nccs2)C3C)CC1 (mixture of isomers) [Compound A2, (E/Z)-2-(5-((4-(2,6-dimethoxy-4-(2-methyl-1-oxo-1,2-dihydro-2,7-naphthyridin-4-yl)benzyl)piperazin-1-yl)methyl)-1-methyl-1,2,3,4-tetrahydroisoquinoline-2-carbonyl)-3-(thiazol-2-yl)acrylonitrile] | – | – | – | – | Dmax at 1 µM ([1]; Table 2, Assay Protocol 1): 40 to 70%; DC50 [1, 9]: < 1.25 nM; Dmax [2, 10]: 40 to 70%; DC50 [2, 11]: < 1.25 nM
11 | COc1cc(-c2cn(C)c(=O)c(C)c2C)cc(OC)c1CN1CCN(CC(=O)NCCOc2ccc3c(c2)CCN(C(=O)/C(C#N)=C/c2nccs2)C3C)CC1 (mixture of isomers) [Compound B31, (E/Z)—N-(2-((2-(2-cyano-3-(thiazol-2-yl)acryloyl)-1-methyl-1,2,3,4-tetrahydroisoquinolin-6-yl)oxy)ethyl)-2-(4-(2,6-dimethoxy-4-(1,4,5-trimethyl-1-oxo-1,6-dihydropyridin-3-yl)benzyl)piperazin-1-yl)acetamide] | – | 40 to 70% | 10 to 25 nM | 40 to 70% | –
12 | COc1cc(-c2cn(C)c(=O)c(C)c2C)cc(OC)c1CN1CCN(Cc2cccc3c2CCN(C(=O)/C(C#N)=C/c2ccnc(C)n2)C3C)CC1 (mixture of isomers) [Compound B9, (E/Z)-2-(5-((4-(2,6-dimethoxy-4-(1,4,5-trimethyl-6-oxo-1,6-dihydropyridin-3-yl)benzyl)piperazin-1-yl)methyl)-1-methyl-1,2,3,4-tetrahydroisoquinoline-2-carbonyl)-3-(2-methylpyrimidin-4-yl)acrylonitrile] | < 1.25 nM | > 75% | < 1.25 nM | > 75% | –
13 | COc1cc(-c2cn(C)c(=O)c3cnccc23)cc(OC)c1CN1CC2CC(C1)N2Cc1cccc2c1CCN(C(=O)/C(C#N)=C/C(C)(C)C)C2C (mixture of isomers) [Compound A41, (E/Z)-2-(5-((3-(2,6-dimethoxy-4-(2-methyl-1-oxo-1,2-dihydro-2,7-naphthyridin-4-yl)benzyl)-3,6-diazabicyclo[3.1.1]heptan-6-yl)methyl)-1-methyl-1,2,3,4-tetrahydroisoquinoline-2-carbonyl)-4,4-dimethylpent-2-enenitrile] | – | – | – | – | Dmax at 1 µM ([1]; Table 2, Assay Protocol 1): 70 to 75%; DC50 ([1]; read-out: Assay 1 DC50, Table 2, Assay Protocol 1, 6 h of treatment): 1.25 to 10 nM; Dmax ([2]; 24 h, Table 2, BRD9 degradation (IF), Assay Protocol 2, MV4-11 cells, read-out: Assay 2 DCmax): 70 to 75%; DC50 [2, 11]: 1.25 to 10 nM
14 | COc1cc(-c2cn(C)c(=O)c(C)c2C)cc(OC)c1CN(C)Cc1ccc(C2CCCN2C(=O)/C(C#N)=C/C(C)(C)C)cc1 (mixture of isomers) [Compound B34] | 10 to 25 nM | 40 to 70% | 1.25 to 10 nM | 40 to 70% | –
